The values below come from patent publication US20200121677A1, “SUBSTITUTED 6,7-DIHYDROPYRAZOLO[1,5-a]PYRAZINES AS NEGATIVE ALLOSTERIC MODULATORS OF MGLUR2 RECEPTORS” (Janssen Pharmaceutica NV, priority 2014, published 2020).

Some results are limits rather than exact numbers.

The test system of data set [1] is rats. Briefly: Reversal of the effect of the mGluR2 PAM JNJ-42153605-induced inhibition of scopolamine-induced hyperlocomotion. It counts as in vivo, rat. The settings on record: for ED50: Rattus norvegicus, read-out: ED50 SCOP JNJ-42153605 (Reversal of the effect of JNJ 42153605 on scopolamine-induced hyperlocomotion); for ED50 / ED50 SCOP JNJ-42153605 (Reversal of the effect of JNJ 42153605 on scopolamine-induced hyperlocomotion): rats, route PO, criterion total distance >1500 cm. As to the method:
2) Reversal of the Effect of the mGluR2 PAM JNJ-42153605-Induced Inhibition of Scopolamine-Induced Hyperlocomotion
Motor activity was measured in microprocessor-based motor activity arenas (closed gray PVC cylinders with a height of 39 cm and a diameter of 31 cm). Each arena was placed on an infrared LED (8×8 LEDs) lit box (white PVC squared box; 40×40 cm^2; height 12.5 cm. An infrared-sensitive tube camera and a white light source were mounted to the ceiling above the observation chamber to track the animal. The total distance traveled (cm) was recorded and analyzed using the Noldus Ethovision XT Video Tracking System (Version 7.0.418; Noldus, Wageningen, The Netherlands). The intensity of the light within the activity cages (measured in the centre at the level of the floor) ranged between 4 and 8 LUX.
The rats were pretreated with test compound or vehicle at 60 min before the start of the activity recordings and placed into individual cages. The rats were challenged with JNJ-42153605 (3-(cyclopropylmethyl)-7-(4-phenylpiperidin-1-yl)-8-(trifluoromethyl)[1,2,4]triazolo[4,3-a]pyridine; WO2010/130424; Cid et al. J. Med. Chem. 2012, 55, 8770-8789) (20 mg/kg, i.v.) 30 min before the start of the activity recording combined with scopolamine (0.16 mg/kg, i.v.) just before the start of the activity measurements. Immediately after the injection of scopolamine, the rats were placed into the activity monitors and total distance traveled over the first 30 min was measured.
For reversal of the inhibitory effect of JNJ-42153605 on the scopolamine-induced hyperlocomotion, the following all-or-none criteria were adopted: (1) reversal: total distance >1500 cm.

For data set [2], the target named is human mGlu2 receptor (Homo sapiens, UniProt Q14416). Briefly: [35S]GTPγS binding assay, mGluR2 negative allosteric modulation (membranes from CHO cells transfected with human mGlu2 receptor, glutamate ~EC80 60 μM).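 As to all read-outs here: membranes preincubated 30 min at 30 °C with compound plus glutamate, then [35S]GTPγS (0.1 nM) incorporation measured over another 30 min at 30 °C.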 The following applies: for IC50: GTPγS - hmGluR2 anGT pIC50, membranes with human mGlu2 receptor; for IC50 / GTPγS - hmGluR2 anGT pIC50: glutamate ~EC80 (60 μM), pIC50 = -log IC50 (M); for Emax: read-out: GTPγS - hmGluR2 anGT Emax, relative maximal effect: maximal % inhibition relative to the control glutamate response; for GTPγS - hmGluR2 anGT pIC50: membranes with human mGlu2 receptor; for GTPγS - hmGluR2 anGT Emax: relative maximal effect: maximal % inhibition relative to the control glutamate response.
Experimental: The [^35S]GTPγS binding assay is a functional membrane-based assay used to study G-protein coupled receptor (GPCR) function whereby incorporation of a non-hydrolysable form of GTP, [^35S]GTPγS (guanosine 5′-triphosphate, labelled with gamma-emitting ^35S), is measured. […] Here we describe the use of the [^35S]GTPγS binding assay using membranes from cells transfected with the human mGlu2 receptor and adapted from Schaffhauser et al. (Molecular Pharmacology, 2003, 4:798-810) for the detection of the negative allosteric modulation (NAM) properties of the compounds of this invention.
CHO-cells were cultured to pre-confluence and stimulated with 5 mM butyrate for 24 h. Cells were then collected by scraping in PBS and cell suspension was centrifuged (10 min at 4000 RPM in benchtop centrifuge). Supernatant was discarded and pellet gently resuspended in 50 mM Tris-HCl, pH 7.4 by mixing with an Ultra Turrax homogenizer. The suspension was centrifuged at 12,400 RPM (Sorvall F14S-6x250Y) for 10 minutes and the supernatant discarded. The pellet was homogenized in 5 mM Tris-HCl, pH 7.4 using an Ultra Turrax homogenizer and centrifuged again (13,000 RPM, 20 min, 4° C.). The final pellet was resuspended in 50 mM Tris-HCl, pH 7.4 and stored at −80° C. in appropriate aliquots before use. Protein concentration was determined by the Bradford method (Bio-Rad, USA) with bovine serum albumin as standard.
Measurement of mGluR2 negative allosteric modulatory activity of test compounds was performed as follows. Test compounds and glutamate were diluted in assay buffer containing 10 mM HEPES acid, 10 mM HEPES salt, pH 7.4, 100 mM NaCl, 3 mM MgCl2 and 10 μM GDP. Human mGlu2 receptor-containing membranes were thawed on ice and diluted in assay buffer supplemented with 18 μg/ml saponin. Membranes were pre-incubated with compound together with a predefined (˜EC80) concentration of glutamate (60 μM) for 30 min at 30° C. After addition of [^35S]GTPγS (f.c. 0.1 nM), assay mixtures were shaken briefly and further incubated to allow [^35S]GTPγS incorporation on activation (30 minutes, 30° C.). Final assay mixtures contained 7 μg of membrane protein in 10 mM HEPES acid, 10 mM HEPES salt, pH 7.4, 100 mM NaCl, 3 mM MgCl2, 10 μM GDP and 10 μg/ml saponin. Total reaction volume was 200 μl. Reactions were terminated by rapid filtration through Unifilter-96 GF/B plates (Perkin Elmer, Massachusetts, USA) using a 96-well filtermate universal harvester. Filters were washed 6 times with ice-cold 10 mM NaH2PO4/10 mM Na2HPO4, pH 7.4. Filters were then air-dried, and 30 μl of liquid scintillation cocktail (Microscint-O) was added to each well. Membrane-bound radioactivity was counted in a Topcount.
Data were calculated as % of the control glutamate response, defined as the response that is generated upon addition of an EC80-equivalent concentration of glutamate.

[3] abbreviates: historical solvent-pretreated control rats, first 30 min, JNJ-42153605 20 mg/kg i.v., scopolamine 0.16 mg/kg i.v.

Chain of human mGlu2 receptor (Q14416 19-872): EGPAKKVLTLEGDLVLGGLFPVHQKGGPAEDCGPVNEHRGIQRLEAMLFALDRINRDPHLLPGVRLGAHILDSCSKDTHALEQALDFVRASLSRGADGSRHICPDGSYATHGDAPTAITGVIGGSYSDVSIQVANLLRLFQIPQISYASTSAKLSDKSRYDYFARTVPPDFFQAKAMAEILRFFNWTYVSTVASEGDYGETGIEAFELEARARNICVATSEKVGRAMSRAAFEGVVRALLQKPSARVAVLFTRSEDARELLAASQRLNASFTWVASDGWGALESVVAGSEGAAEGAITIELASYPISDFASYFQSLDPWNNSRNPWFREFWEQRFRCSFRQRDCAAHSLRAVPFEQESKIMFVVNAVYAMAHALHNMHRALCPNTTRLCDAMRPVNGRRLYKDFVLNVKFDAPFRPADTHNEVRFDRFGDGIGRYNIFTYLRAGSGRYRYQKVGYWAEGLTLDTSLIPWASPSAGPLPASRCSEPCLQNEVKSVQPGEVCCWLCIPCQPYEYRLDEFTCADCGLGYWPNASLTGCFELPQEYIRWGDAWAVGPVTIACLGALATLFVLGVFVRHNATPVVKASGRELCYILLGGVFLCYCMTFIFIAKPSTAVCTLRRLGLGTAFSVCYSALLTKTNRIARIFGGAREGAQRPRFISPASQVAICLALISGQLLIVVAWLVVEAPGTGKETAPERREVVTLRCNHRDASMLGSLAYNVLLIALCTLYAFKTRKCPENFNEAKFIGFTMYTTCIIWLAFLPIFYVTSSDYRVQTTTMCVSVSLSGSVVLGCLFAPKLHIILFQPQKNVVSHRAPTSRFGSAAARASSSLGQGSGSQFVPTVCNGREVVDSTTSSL

In the case of `C[C@H]1CN(c2ccc(OC(F)(F)F)c(Cl)c2)C(=O)c2c(C(=O)Nc3cccnc3)cnn21` [compound 152], the melting point – broadly, the temperature of the solid-liquid transition – stood at 145.36 °C. For the same compound, the ED50 (commonly the dose at which the effect has come halfway, by size or by number of responders) in data set [1] came to 0.08 mg/kg. Besides, in data set [2], the IC50 (commonly the point on the concentration scale where inhibition reaches its midpoint) was 1.05e-09 M and the maximal response (Emax) (as a rule, the size of the effect at its maximum, as opposed to the concentration needed) came to 108%.

For the compound `Cc1cc(N2C[C@H](C)n3ncc(C(=O)Nc4cnccn4)c3C2=O)ccc1Cl` [compound 161], the melting point was found to be 233.4 °C. For the same compound, the median effective dose (ED50) in data set [1] is above 0.63 mg/kg. Further, in data set [2], the IC50 was 2.82e-09 M and the Emax came to 108%.

The compound `C[C@H]1CN(c2ccc(Cl)c(Cl)c2)C(=O)c2c(C(=O)Nc3ccc(F)cn3)cnn21` [compound 98, (7S)-5-(3,4-Dichlorophenyl)-N-(5-fluoro-2-pyridyl)-7-methyl-4-oxo-6,7-dihydropyrazolo[1,5-a]pyrazine-3-carboxamide] displayed a melting point of 179.56 °C. Besides, the ED50 in data set [1] was above 0.63 mg/kg. In data set [2], the IC50 was 3.63e-09 M and the Emax turned out to be 107%.

Compound `C[C@H]1CN(c2ccc(C(F)(F)F)cc2)C(=O)c2c(C(=O)Nc3nccs3)cnn21` [compound 140] returned a melting point of 246.7 °C. The ED50 in data set [1] was above 2.5 mg/kg. Further, in data set [2], the IC50 was 9.33e-09 M and the Emax turned out to be 111%.

In the case of `Cc1cc(N2C[C@H](C)n3ncc(C(=O)Nc4ccc(F)cn4)c3C2=O)ccc1C(F)(F)F` [compound 110], the “ED50 SCOP JNJ-42153605 (Reversal of the effect of JNJ 42153605 on scopolamine-induced hyperlocomotion)” value in data set [1] is above 0.63 mg/kg. In addition, in data set [2], the “GTPγS - hmGluR2 anGT pIC50” value amounted to 8.3 and the “GTPγS - hmGluR2 anGT Emax” value stood at 107%.

For `COc1cc(N2C[C@H](C)n3ncc(C(=O)Nc4cncc(C)c4)c3C2=O)ccc1C(F)(F)F` [compound 33], the melting point amounted to 216.6 °C. In addition, the ED50 in data set [1] is above 0.63 mg/kg. For the same compound, in data set [2], the IC50 is 3.72e-09 M and the Emax stood at 111%.

Take `Cc1cc(N2C[C@H](C)n3ncc(C(=O)Nc4cnccn4)c3C2=O)ccc1C(F)(F)F` [compound 112]: the ED50 in data set [1] is 0.2 mg/kg. Moreover, in data set [2], the IC50 was 1.12e-09 M and the maximal response (Emax) was determined as 106%.

On to `COCC1CN(c2ccc(C(F)(F)F)c(Cl)c2)C(=O)c2c(C(=O)Nc3cccnc3)cnn21` (single isomer, unassigned) [compound 156], for which the “ED50 SCOP JNJ-42153605 (Reversal of the effect of JNJ 42153605 on scopolamine-induced hyperlocomotion)” value in data set [1] was 0.20 mg/kg. In addition, in data set [2], the “GTPγS - hmGluR2 anGT pIC50” value was determined as 8.77 and the “GTPγS - hmGluR2 anGT Emax” value was 107%.

`C[C@H]1CN(c2ccc(C(F)(F)F)cc2)C(=O)c2c(C(=O)Nc3ccc(N)nc3)cnn21` [compound 19] yielded a melting point of 181.5 °C. The ED50 in data set [1] stood at 0.79 mg/kg. Moreover, in data set [2], the IC50 is 2.63e-09 M and the Emax turned out to be 104%.

Turning to `COCC1CN(c2ccc(C(F)(F)F)cc2)C(=O)c2c(C(=O)Nc3cccnc3)cnn21` (single isomer, unassigned) [compound 158], in data set [1], the “ED50 SCOP JNJ-42153605 (Reversal of the effect of JNJ 42153605 on scopolamine-induced hyperlocomotion)” value is on record as above 0.63 mg/kg. In data set [2], the “GTPγS - hmGluR2 anGT pIC50” value was 8.48 and the “GTPγS - hmGluR2 anGT Emax” value is recorded as 108%.

`C[C@H]1CN(c2ccc(C(F)(F)F)cc2)C(=O)c2c(C(=O)Nc3ccc(F)cn3)cnn21` [compound 104] registered a melting point of 184.48 °C. For the same compound, the ED50 in data set [1] is above 0.63 mg/kg. Also, in data set [2], the IC50 is 8.13e-09 M and the Emax stood at 108%.

In the case of `COc1cccc(NC(=O)c2cnn3c2C(=O)N(c2ccc(C(F)(F)F)cc2)C[C@@H]3C)n1` [compound 105], the “ED50 SCOP JNJ-42153605 (Reversal of the effect of JNJ 42153605 on scopolamine-induced hyperlocomotion)” value in data set [1] is on record as above 2.5 mg/kg. Further, in data set [2], the “GTPγS - hmGluR2 anGT pIC50” value is given as 8.21 and the “GTPγS - hmGluR2 anGT Emax” value was determined as 108%.

As to `Cc1cncc(NC(=O)c2cnn3c2C(=O)N(c2ccc(Cl)c(Cl)c2)C[C@@H]3C)c1` [compound 28], the “ED50 SCOP JNJ-42153605 (Reversal of the effect of JNJ 42153605 on scopolamine-induced hyperlocomotion)” value in data set [1] is listed as above 0.63 mg/kg. In data set [2], the “GTPγS - hmGluR2 anGT pIC50” value is on record as 9.06 and the “GTPγS - hmGluR2 anGT Emax” value came to 107%.

`Cc1c(F)cncc1NC(=O)c1cnn2c1C(=O)N(c1ccc(C(F)(F)F)c(Cl)c1)C[C@@H]2C` [compound 133, (7S)-5-[3-chloro-4-(trifluoromethyl)phenyl]-N-(5-fluoro-4-methyl-3-pyridyl)-7-methyl-4-oxo-6,7-dihydropyrazolo[1,5-a]pyrazine-3-carboxamide] yielded a melting point of 167.78 °C. In addition, the ED50 in data set [1] is above 0.63 mg/kg. Besides, in data set [2], the IC50 is 9.12e-10 M and the Emax was determined as 105%.

As for `COc1cncc(NC(=O)c2cnn3c2C(=O)N(c2ccc(Cl)c(Cl)c2)C[C@@H]3C)c1` [compound 29], the “ED50 SCOP JNJ-42153605 (Reversal of the effect of JNJ 42153605 on scopolamine-induced hyperlocomotion)” value in data set [1] was above 0.63 mg/kg. Further, in data set [2], the “GTPγS - hmGluR2 anGT pIC50” value was 8.75 and the “GTPγS - hmGluR2 anGT Emax” value is reported as 107%.

On to `C[C@H]1CN(c2ccc(C(F)(F)F)cc2)C(=O)c2c(C(=O)Nc3ccncn3)cnn21` [compound 141], for which the melting point was 224.9 °C. Besides, the median effective dose (ED50) in data set [1] was above 2.5 mg/kg. Moreover, in data set [2], the IC50 was 8.32e-09 M and the Emax came out at 113%.

For the compound `C[C@H]1CN(c2ccc(C(F)(F)F)cc2)C(=O)c2c(C(=O)Nc3ccc(F)cc3)cnn21` [compound 7], the melting point was 185.3 °C. Besides, the ED50 in data set [1] was above 2.5 mg/kg. In data set [2], the half-maximal inhibitory concentration (IC50) was 4.68e-09 M and the Emax was found to be 103%.

`Cc1cc(NC(=O)c2cnn3c2C(=O)N(c2ccc(Cl)cc2)C[C@@H]3C)ccn1` [compound 89] showed a melting point of 171.4 °C. For the same compound, in data set [1], the ED50 was above 2.5 mg/kg. Further, in data set [2], the IC50 was 1.05e-08 M and the Emax came to 107%.

As for `CN1[C@@H]2C[C@@H](OC(=O)[C@H](CO)c3ccccc3)C[C@H]1[C@@H]1O[C@@H]12` [Scopolamine, scopolamine], in data set [1] (setting [3]), the “Total distance traveled >1500 cm (%)” value is 100%; the “Total distance traveled >4400 cm (%)” value stood at 95.8%; the “Total distance traveled, Median (cm)” value was 7246 cm.

For the compound `C[C@H]1CN(c2ccc(C(F)(F)F)c(Cl)c2)C(=O)c2c(C(=O)Nc3cnccn3)cnn21` [compound 106], the median effective dose (ED50) in data set [1] stood at 0.32 mg/kg. In data set [2], the concentration for half-maximal inhibition (IC50) is 1.15e-09 M and the Emax is 111%.

With `COCC1CN(c2ccc(C(F)(F)F)cc2)C(=O)c2c(C(=O)Nc3cnccn3)cnn21` (single isomer, unassigned) [compound 154], the “ED50 SCOP JNJ-42153605 (Reversal of the effect of JNJ 42153605 on scopolamine-induced hyperlocomotion)” value in data set [1] was found to be 0.63 mg/kg. Moreover, in data set [2], the “GTPγS - hmGluR2 anGT pIC50” value worked out at 8.31 and the “GTPγS - hmGluR2 anGT Emax” value is reported as 113%.

Compound `C[C@H]1CN(c2ccc(C(F)(F)F)cc2)C(=O)c2c(C(=O)Nc3ncccn3)cnn21` [compound 103] gave a melting point of 248.3 °C. In addition, in data set [2], the IC50 is 1.02e-07 M and the Emax was 104%.

As to `COc1ccccc1NC(=O)c1cnn2c1C(=O)N(c1ccc(C(F)(F)F)c(OC)n1)C[C@@H]2C` [compound 122], the melting point was 192.95 °C. In data set [2], the IC50 was 2.14e-08 M and the Emax turned out to be 113%.

The compound `Cc1ncccc1NC(=O)c1cnn2c1C(=O)N(c1ccc(C(F)(F)F)cc1)C[C@@H]2C` [compound 10] came in with a melting point of 171.6 °C. Moreover, in data set [2], the IC50 was 2e-08 M and the Emax came out at 113%.

Regarding `C[C@H]1CN(c2ccc(C(F)(F)F)c(F)c2)C(=O)c2c(C(=O)Nc3cnccn3)cnn21` [compound 113], the melting point was determined as 181.5 °C. In addition, in data set [2], the IC50 is 3.16e-09 M and the maximum response (Emax) turned out to be 107%.

With `C[C@H]1CN(c2ccc(C(F)(F)F)cc2)C(=O)c2c(C(=O)NC(=O)C3CCC3)cnn21` [compound 137, (7S)—N-(cyclobutanecarbonyl)-7-methyl-4-oxo-5-[4-(trifluoromethyl)phenyl]-6,7-dihydropyrazolo[1,5-a]pyrazine-3-carboxamide], the melting point was determined as 237.74 °C. Moreover, in data set [2], the IC50 was 4.07e-08 M and the Emax is 107%.

With `COc1cncc(NC(=O)c2cnn3c2C(=O)N(c2ccc(C(F)(F)F)c(Cl)c2)C[C@@H]3C)c1` [compound 51], the melting point amounted to 214.9 °C. Moreover, in data set [2], the half-maximal inhibitory concentration (IC50) is 1.41e-09 M and the Emax was 113%.

As for `COCc1cc(N2C[C@H](C)n3ncc(C(=O)Nc4ccnc(C)c4)c3C2=O)ccc1C(F)(F)F` [compound 95], the ED50 in data set [1] is above 2.5 mg/kg. In addition, in data set [2], the IC50 is 5.5e-09 M and the maximum response (Emax) is 112%.
